# Reference: US20070009563A1, “PROCESS FOR COATING FIBER OR FABRIC WITH INSECTICIDE USING A TEMPERATURE OF 150°C-190°C FOR DRYING” (priority 2005, published 2007)
# Assays:
# [1] = Quantity of deltamethrin on mosquito net fabric after drying at various temperatures; format: physicochemical; settings: polyester net coated at 55 mg/m^2
# Protocol: High temperatures in the range of 150° C.-190° C. are used in the process of fabric drying according to the present invention to create fiber stability and strengthen chemicals used for stabilizing that fiber in order to make the insecticide adhere to the fiber. However, this temperature range affects the insecticide degradation. For example, coating of a polyester mosquito net with deltamethrin requires a deltamethrin concentration of 55 mg/m^2. The material is then dried at various temperatures using the same length of time for drying.
# The ratio of deltamethrin degradation is also affected by the length of time for drying.
# [2] = test system: insects; settings: with small dosages; cited from earlier work
# [3] = test system: mosquitoes; experiment: Efficiency test for mosquito net dipped in insecticide: 3 minutes contact, knock down and mortality; format: in vivo; settings: for % KD, After Washing 5 Times / % mort., After Washing 5 Times: after 5 washes; for % KD, After Washing 5 Times / % KD, After Washing 10 Times / % KD, After Washing 15 Times / % KD, After Washing 20 Times / % KD, Before Washing: knock down after 60 minutes; for % mort., After Washing 5 Times / % mort., After Washing 10 Times / % mort., After Washing 15 Times / % mort., After Washing 20 Times / % mort., Before Washing: mortality after 24 hours; for % KD, After Washing 10 Times / % mort., After Washing 10 Times: after 10 washes; for % KD, After Washing 15 Times / % mort., After Washing 15 Times: after 15 washes; for % KD, After Washing 20 Times / % mort., After Washing 20 Times: after 20 washes
# Protocol: The efficiency test for mosquito net dipped in insecticide/insect repellent is done by letting mosquitoes rest on the mosquito net for 3 minutes and then catching the mosquitoes, placing them in a clean container, and observing them to see which of the following conditions apply:
# 1. % Knock down (% KD): the number of mosquitoes that cannot move after 60 minutes, in some embodiments, must be more than 80%.
# 2. Mortality (% mort.): the mortality rate of mosquitoes after 24 hours, in some embodiments, must be more than 95%.
# [4] = Quantity of deltamethrin on mosquito net fabric before and after washing (WHO washing procedure standard); format: physicochemical; settings: for Deltamethrin on the fabric, After Washing 5 Times: after 5 washes; for Deltamethrin on the fabric, After Washing 10 Times: after 10 washes; for Deltamethrin on the fabric, After Washing 15 Times: after 15 washes; for Deltamethrin on the fabric, After Washing 20 Times: after 20 washes
# From the text: In addition, the temperatures used for drying the fabric in the manufacturing process affect washing resistance. That is, the fabric which is dried at higher temperature can resist washing better than the fabric that is dried at lower temperature.
smiles,measurement,setting,value
"CC1(C)[C@H](C(=O)O[C@H](C#N)c2cccc(Oc3ccccc3)c2)[C@@H]1C=C(Br)Br [deltamethrin, Deltamethrin]",Deltamethrin on the fabric of mosquito net after drying,[1]; drying temperature 150 °C,55 mg/m^2
same,Deltamethrin on the fabric of mosquito net after drying,[1]; drying temperature 160 °C,55 mg/m^2
same,Deltamethrin on the fabric of mosquito net after drying,[1]; drying temperature 170 °C,55 mg/m^2
same,Deltamethrin on the fabric of mosquito net after drying,[1]; drying temperature 180 °C,37 mg/m^2
same,Deltamethrin on the fabric of mosquito net after drying,[1]; drying temperature 190 °C,25 mg/m^2
same,effectiveness relative to permethrin,[2],more than 30 times
same,"% KD, After Washing 5 Times",[3]; drying temperature 150 °C,100%
same,"% mort., After Washing 5 Times",[3]; drying temperature 150 °C,100%
same,"% KD, After Washing 10 Times",[3]; drying temperature 150 °C,100%
same,"% mort., After Washing 10 Times",[3]; drying temperature 150 °C,100%
same,"% KD, After Washing 15 Times",[3]; drying temperature 150 °C,100%
same,"% mort., After Washing 15 Times",[3]; drying temperature 150 °C,90%
same,"% KD, After Washing 20 Times",[3]; drying temperature 150 °C,95%
same,"% mort., After Washing 20 Times",[3]; drying temperature 150 °C,82%
same,"% KD, Before Washing",[3]; drying temperature 150 °C,100%
same,"% mort., Before Washing",[3]; drying temperature 150 °C,100%
same,"% KD, After Washing 5 Times",[3]; drying temperature 160 °C,100%
same,"% mort., After Washing 5 Times",[3]; drying temperature 160 °C,100%
same,"% KD, After Washing 10 Times",[3]; drying temperature 160 °C,100%
same,"% mort., After Washing 10 Times",[3]; drying temperature 160 °C,96%
same,"% KD, After Washing 15 Times",[3]; drying temperature 160 °C,100%
same,"% mort., After Washing 15 Times",[3]; drying temperature 160 °C,90%
same,"% KD, After Washing 20 Times",[3]; drying temperature 160 °C,96%
same,"% mort., After Washing 20 Times",[3]; drying temperature 160 °C,80%
same,"% KD, Before Washing",[3]; drying temperature 160 °C,100%
same,"% mort., Before Washing",[3]; drying temperature 160 °C,100%
same,"% KD, After Washing 5 Times",[3]; drying temperature 170 °C,100%
same,"% mort., After Washing 5 Times",[3]; drying temperature 170 °C,100%
same,"% KD, After Washing 10 Times",[3]; drying temperature 170 °C,100%
same,"% mort., After Washing 10 Times",[3]; drying temperature 170 °C,100%
same,"% KD, After Washing 15 Times",[3]; drying temperature 170 °C,100%
same,"% mort., After Washing 15 Times",[3]; drying temperature 170 °C,90%
same,"% KD, After Washing 20 Times",[3]; drying temperature 170 °C,95%
same,"% mort., After Washing 20 Times",[3]; drying temperature 170 °C,82%
same,"% KD, Before Washing",[3]; drying temperature 170 °C,100%
same,"% mort., Before Washing",[3]; drying temperature 170 °C,100%
same,"% KD, After Washing 5 Times",[3]; drying temperature 180 °C,100%
same,"% mort., After Washing 5 Times",[3]; drying temperature 180 °C,82%
same,"% KD, After Washing 10 Times",[3]; drying temperature 180 °C,95%
same,"% mort., After Washing 10 Times",[3]; drying temperature 180 °C,62%
same,"% KD, After Washing 15 Times",[3]; drying temperature 180 °C,82%
same,"% mort., After Washing 15 Times",[3]; drying temperature 180 °C,22%
same,"% KD, After Washing 20 Times",[3]; drying temperature 180 °C,84%
same,"% mort., After Washing 20 Times",[3]; drying temperature 180 °C,0%
same,"% KD, Before Washing",[3]; drying temperature 180 °C,100%
same,"% mort., Before Washing",[3]; drying temperature 180 °C,98%
same,"% KD, After Washing 5 Times",[3]; drying temperature 190 °C,100%
same,"% mort., After Washing 5 Times",[3]; drying temperature 190 °C,68%
same,"% KD, After Washing 10 Times",[3]; drying temperature 190 °C,95%
same,"% mort., After Washing 10 Times",[3]; drying temperature 190 °C,18%
same,"% KD, After Washing 15 Times",[3]; drying temperature 190 °C,44%
same,"% mort., After Washing 15 Times",[3]; drying temperature 190 °C,0%
same,"% KD, After Washing 20 Times",[3]; drying temperature 190 °C,16%
same,"% mort., After Washing 20 Times",[3]; drying temperature 190 °C,0%
same,"% KD, Before Washing",[3]; drying temperature 190 °C,100%
same,"% mort., Before Washing",[3]; drying temperature 190 °C,96%
same,"Deltamethrin on the fabric, After Washing 5 Times",[4]; drying temperature 150 °C,40 mg/m^2
same,"Deltamethrin on the fabric, After Washing 10 Times",[4]; drying temperature 150 °C,32 mg/m^2
same,"Deltamethrin on the fabric, After Washing 15 Times",[4]; drying temperature 150 °C,16 mg/m^2
same,"Deltamethrin on the fabric, After Washing 20 Times",[4]; drying temperature 150 °C,10 mg/m^2
same,"Deltamethrin on the fabric, Before Washing",[4]; drying temperature 150 °C,55 mg/m^2
same,"Deltamethrin on the fabric, After Washing 5 Times",[4]; drying temperature 160 °C,42 mg/m^2
same,"Deltamethrin on the fabric, After Washing 10 Times",[4]; drying temperature 160 °C,36 mg/m^2
same,"Deltamethrin on the fabric, After Washing 15 Times",[4]; drying temperature 160 °C,19 mg/m^2
same,"Deltamethrin on the fabric, After Washing 20 Times",[4]; drying temperature 160 °C,12 mg/m^2
same,"Deltamethrin on the fabric, Before Washing",[4]; drying temperature 160 °C,55 mg/m^2
same,"Deltamethrin on the fabric, After Washing 5 Times",[4]; drying temperature 170 °C,44 mg/m^2
same,"Deltamethrin on the fabric, After Washing 10 Times",[4]; drying temperature 170 °C,38 mg/m^2
same,"Deltamethrin on the fabric, After Washing 15 Times",[4]; drying temperature 170 °C,22 mg/m^2
same,"Deltamethrin on the fabric, After Washing 20 Times",[4]; drying temperature 170 °C,16 mg/m^2
same,"Deltamethrin on the fabric, Before Washing",[4]; drying temperature 170 °C,55 mg/m^2
same,"Deltamethrin on the fabric, After Washing 5 Times",[4]; drying temperature 180 °C,26 mg/m^2
same,"Deltamethrin on the fabric, After Washing 10 Times",[4]; drying temperature 180 °C,20 mg/m^2
same,"Deltamethrin on the fabric, After Washing 15 Times",[4]; drying temperature 180 °C,16 mg/m^2
same,"Deltamethrin on the fabric, After Washing 20 Times",[4]; drying temperature 180 °C,4 mg/m^2
same,"Deltamethrin on the fabric, Before Washing",[4]; drying temperature 180 °C,37 mg/m^2
same,"Deltamethrin on the fabric, After Washing 5 Times",[4]; drying temperature 190 °C,19 mg/m^2
same,"Deltamethrin on the fabric, After Washing 10 Times",[4]; drying temperature 190 °C,15 mg/m^2
same,"Deltamethrin on the fabric, After Washing 15 Times",[4]; drying temperature 190 °C,8 mg/m^2
same,"Deltamethrin on the fabric, After Washing 20 Times",[4]; drying temperature 190 °C,4 mg/m^2
same,"Deltamethrin on the fabric, Before Washing",[4]; drying temperature 190 °C,25 mg/m^2
